Measured values from ChEMBL document CHEMBL4482302, “Inhibitors of rac1 and uses thereof for inducing bronchodilatation” (2018).
Activity calls are given as the source filed them. No cut-off for these calls is given here.

How the values were obtained:
[1] = biological target: Ras-related C3 botulinum toxin substrate 1 (Mus musculus, UniProt P63001); assay: Inhibition of Rac1 activation in mouse NIH/3T3 cells lysates pre-incubated for 1 hr before addition of Rac activator stimulation by immunoblot analysis based pull-down assay relative to control; format: subcellular, Lysate
[2] = biological target: Ras-related C3 botulinum toxin substrate 1 (Mus musculus) (UniProt P63001); assay: Inhibition of Rac1 in mouse NIH/3T3 cells assessed as reduction in Rac activator-stimulated membrane ruffling; format: cell-based
[3] = biological target: ADP-ribosylation factor 6 (Mus musculus) (UniProt P62331); assay: Inhibition of mouse Arf6 assessed as decrease in B-max for GTP-binding on Rac1 by mant-GTP binding kinetics real-time assay
Mus musculus = assay: Suppression of airway hyperresponsiveness in mouse model of percutaneous sensitization and house dust mite extract intranasal challenge-induced human allergic asthma dosed via nebulization 10 mins before methacholine challenge; format: functional, organism-based
[4] = biological target: Ras-related C3 botulinum toxin substrate 1 (Mus musculus) (UniProt P63001); assay: Binding affinity to mouse Rac1 in presence of EDTA by SPR assay
[5] = biological target: Rho-related GTP-binding protein RhoG (Mus musculus) (UniProt P84096); assay: Inhibition of mouse RhoG assessed as decrease in B-max for GTP-binding on Rac1 by mant-GTP binding kinetics real-time assay
[6] = biological target: Ras-related C3 botulinum toxin substrate 1 (Mus musculus) (UniProt P63001); assay: Inhibition of Rac1 in mouse NIH/3T3 cells assessed as reduction in Rac activator-stimulated cell adhesion measured every 5 mins for 6 hrs by xCELLigence assay; format: cell-based
[7] = biological target: Ras-related protein Rab-35 (Mus musculus) (UniProt Q6PHN9); assay: Inhibition of mouse Rab35 assessed as decrease in B-max for GTP-binding on Rac1 by mant-GTP binding kinetics real-time assay
[8] = biological target: Ras-related C3 botulinum toxin substrate 1 (Mus musculus) (UniProt P63001); assay: Inhibition of Rac1 activation in mouse NIH/3T3 cells lysates pre-incubated for 1 hr before addition of Rac activator stimulation by immunoblot analysis based pull-down assay; format: subcellular; details: Lysate
[9] = biological target: Ras-related C3 botulinum toxin substrate 1 (Mus musculus) (UniProt P63001); assay: Inhibition of Rac1 in mouse NIH/3T3 cells assessed as reduction in Rac activator-stimulated cell migration incubated for 24 hrs; format: cell-based
[10] = biological target: Ras-related C3 botulinum toxin substrate 1 (Mus musculus) (UniProt P63001); assay: Inhibition of mouse Rac1 assessed as decrease in B-max for GTP-binding on Rac1 by mant-GTP binding kinetics real-time assay
[11] = biological target: Cell division control protein 42 homolog (Mus musculus) (UniProt P60766); assay: Binding affinity to mouse Cdc42 by SPR assay
[12] = biological target: Transforming protein RhoA (Mus musculus) (UniProt Q9QUI0); assay: Inhibition of mouse RhoA assessed as decrease in B-max for GTP-binding on Rac1 by mant-GTP binding kinetics real-time assay
[13] = biological target: Transforming protein RhoA (Mus musculus) (UniProt Q9QUI0); assay: Binding affinity to mouse RhoA by SPR assay
[14] = biological target: Ras-related C3 botulinum toxin substrate 1 (Mus musculus) (UniProt P63001); assay: Binding affinity to mouse Rac1 by SPR assay
[15] = biological target: Ras-related C3 botulinum toxin substrate 2 (Mus musculus) (UniProt Q05144); assay: Inhibition of mouse Rac2 assessed as decrease in B-max for GTP-binding on Rac1 by mant-GTP binding kinetics real-time assay
[16] = biological target: Ras-related C3 botulinum toxin substrate 1 (Mus musculus) (UniProt P63001); assay: Inhibition of Rac1 in mouse airways smooth muscle cells assessed as reduction in methacholine-induced maximal contraction pre-incubated for 1 hrs before methacholine addition

Sequence of Transforming protein RhoA (Mus musculus) (Q9QUI0 whole entry): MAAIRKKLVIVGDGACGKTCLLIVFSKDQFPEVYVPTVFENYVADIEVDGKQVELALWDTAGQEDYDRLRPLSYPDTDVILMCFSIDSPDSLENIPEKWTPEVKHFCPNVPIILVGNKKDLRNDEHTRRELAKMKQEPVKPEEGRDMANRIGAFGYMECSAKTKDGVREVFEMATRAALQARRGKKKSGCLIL
Sequence of ADP-ribosylation factor 6 (Mus musculus) (P62331 whole entry): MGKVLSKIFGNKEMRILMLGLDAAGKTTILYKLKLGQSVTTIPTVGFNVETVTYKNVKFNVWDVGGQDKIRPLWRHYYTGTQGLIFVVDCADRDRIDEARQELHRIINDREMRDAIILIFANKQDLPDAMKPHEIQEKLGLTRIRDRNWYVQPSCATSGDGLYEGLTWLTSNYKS
Sequence of Ras-related protein Rab-35 (Mus musculus) (Q6PHN9 whole entry): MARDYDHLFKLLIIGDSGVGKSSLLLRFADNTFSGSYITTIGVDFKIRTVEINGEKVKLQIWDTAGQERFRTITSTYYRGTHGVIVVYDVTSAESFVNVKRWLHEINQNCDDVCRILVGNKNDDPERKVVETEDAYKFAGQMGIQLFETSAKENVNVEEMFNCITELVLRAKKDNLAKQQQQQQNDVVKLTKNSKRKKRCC
Sequence of Rho-related GTP-binding protein RhoG (Mus musculus) (P84096 whole entry): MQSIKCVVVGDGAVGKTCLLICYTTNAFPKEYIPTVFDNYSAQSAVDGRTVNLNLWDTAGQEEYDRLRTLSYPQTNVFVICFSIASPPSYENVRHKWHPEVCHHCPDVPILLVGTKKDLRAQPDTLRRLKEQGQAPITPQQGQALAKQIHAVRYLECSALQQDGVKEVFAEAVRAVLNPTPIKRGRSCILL
Sequence of Cell division control protein 42 homolog (Mus musculus) (P60766 whole entry, looked up): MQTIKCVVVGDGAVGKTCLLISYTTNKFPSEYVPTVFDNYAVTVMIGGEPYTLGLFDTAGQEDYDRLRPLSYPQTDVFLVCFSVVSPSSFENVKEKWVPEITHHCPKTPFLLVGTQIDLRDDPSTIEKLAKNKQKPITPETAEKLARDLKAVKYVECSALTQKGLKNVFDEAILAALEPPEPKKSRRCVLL

Compound: COc1ccc(NS(=O)(=O)c2ccc(NC(=O)CCSc3ccc(C)cc3)cc2)c(OC)c1
- IC50 [1]: 30 nM

Compound: COc1ccccc1NS(=O)(=O)c1ccc([N+](=O)[O-])cc1
- IC50 [1]: 1 nM

Compound: COc1cccc(NS(=O)(=O)c2ccc(N)cc2)c1
- IC50 [1]: 1 nM

Compound: COc1ccc(OC)c(NS(=O)(=O)c2ccc(NC(=O)CCSc3ccc(C)cc3)cc2)c1
- inhibition [2]: Dose-dependent effect
- inhibition [3]: inactive
- Activity (Mus musculus): Active
- Activity [4]: Active
- inhibition [5]: inactive
- IC50 [1]: 1 nM
- inhibition [6]: Active
- inhibition [7]: inactive
- inhibition [8]: Active
- inhibition [9]: Active
- inhibition [10]: Active
- Activity [11]: inactive
- inhibition [12]: inactive
- Activity [13]: inactive
- Activity [14]: Active
- inhibition [15]: Active
- inhibition [16]: Active

Compound: C=CC(=O)Nc1ccc(S(=O)(=O)Nc2cc(OC)ccc2OC)cc1
- IC50 [1]: 0.1 nM

Compound: CCN(CC)CCCC(C)Nc1nc(C)cc(Nc2ccc3nc(C)cc(N)c3c2)n1 (centres undefined)
- inhibition [2]: Dose-dependent effect
- inhibition [6]: Active
- inhibition [8]: Active
- inhibition [9]: Active

Compound: COc1ccc(OC)c(NS(=O)(=O)c2ccc(NC(=O)CCOc3ccc(C)cc3)cc2)c1
- IC50 [1]: 1 nM

Compound: COc1ccccc1NS(=O)(=O)c1ccc(N)cc1
- IC50 [1]: 1 nM

Compound: COc1ccccc1NS(=O)(=O)c1ccc(NC(=O)CCSc2ccc(C)cc2)cc1
- IC50 [1]: 1 nM

Compound: COc1ccccc1NS(=O)(=O)c1ccc(NC(=O)CSc2ccc(C)cc2)cc1
- IC50 [1]: 1 nM
